Assay results published in patent US8722714B2, “Oxazolidine derivatives as NMDA antagonists” (The Honk Kong University of Science and Technology, priority 2008, dated 2014).

Legend:
ERK = experiment: Western blot detection of ERK phosphorylation in rat cortical neurons; assay type: cell-based; conditions: 500 μM; rat cortical neurons 11 DIV; vs DMSO control
Protocol: Embryonic day 18 Sprague Dawley rat pups were decapitated, their brains removed, and the cortices were isolated. Tissues were triturated and isolated neurons were plated onto 60 mm plate and cultured with Neurobasal medium supplemented with 2% B27 (Invitrogen). Experiments were performed after 10-12 days in vitro (DIV). Cultured cells were stimulated with a test compound or vehicle control (DMSO) for different time intervals and then lysed with RIPA buffer including protease inhibitors. Cell lysates were stored at −80° C. before use. Before being loaded, the lysates were heated to 95° C. for 10 min, vortexed and centrifuged for 7 min at 15,000×g. Supernatants were electrophoresed on 10% SDS-polyacrylamide gel and transblotted to nitrocellulose membrane. The membranes were washed with 5% (w/v) powdered milk dissolved in PBS with 0.1% Triton X-100, followed by incubation at 4° C. overnight with rabbit polyclonal against phospho-ERK or phosphor-AKT (1:1000, Cell Signaling Technology). Next, the membranes were washed and incubated with horseradish peroxidase (HRP)-conjugated secondary antibodies. The signal was visualized using ECL Western Blotting Kit. Blots were stripped and probed for total ERK or AKT expression. […]
Western blot analysis was performed on the total cell lysates. Antibodies against phospho-ERK1/2 and phospho-AKT were used and detected with HRP conjugated secondary antibodies. […]

mice = experiment: Forced Swim Test (FST); assay type: in vivo; conditions: 100 mg/kg p.o., 7 times, last 4 min of 6-min swim
Excerpt: Outbred male I.C.R. mice of ˜3-4 weeks old weighing 20-22 g were used. The mice had free access to food (rodent chow #2053, 5g/mouse/day) and water. The cage floors were covered with wood shavings and the mice were handled once per week while the cages were cleaned. […] Number of mice per group was ˜10-15. To facilitate adaptation to novel surroundings, mice were transported to the testing area from the core animal facility at least one week prior to testing. All experimental sessions were conducted between 0900 and 1200 hours. Briefly, mice were put into a pyrex cylinder of 30 cm in height and 11.5 cm in diameter with water (10 cm) to a level that they would not be able to touch the bottom. Mice were put into the cylinder for twice, first day 15 min and second day 6 min. The duration of immobility (within the last 4 min in the 6-min time frame) of mice in FST were recorded using Etho-Vision® XT Mobility (Noldus software). The parameters to score the behavior of animals in the FST were fine-tuned by visual inspection. […]
The Forced Swim Test (FST) is a popular animal model for assessing depression. […] The time that the test animal spends in an immobile state in the second trial is measured (immobility time). […]
The task was then performed twice and the duration of time the mice spent in an immobile state during the second trial was measured. […]

With `CC[C@H]1N[C@@H](CC(C)C)C(CC)(CC)O1` [LC-02] as the compound, how does the “phosphorylation of ERK” value (ERK) read?
Its value is “induced phosphorylation of ERK after a 15-min treatment period and persisted to 60 min”.

With `CCCC1(CCC)O[C@@H](CC)N[C@H]1CC(C)C` [LC-06] as the compound, how does the “duration of immobility (immobility time)” value (mice) read?
Its value is “Reduces the Duration of Immobility”.
